Measurements: the supplement of paper PMC13380429

Tests used:
Conditions in all cases: 72 h
HepG2 [1] = test: relative viability EC50 (midpoint between 100% and the lowest measured viability); higher = less toxic
Caco-2 [2] = test: as above
U2OS [3] = test: as above
Vero E6 [4] = test: as above
Calu-3 [5] = test: as above
HepG2 [6] = test: drug sensitivity score (DSS) for viability; higher = more toxic; extreme values may be limits of the assay
Caco-2 [7] = test: as above
U2OS [8] = test: as above
Vero E6 [9] = test: as above
Calu-3 [10] = test: as above
HepG2 [11] = test: cell viability relative to DMSO; higher = less toxic
Caco-2 [12] = test: as above
U2OS [13] = test: as above
Vero E6 [14] = test: as above
Calu-3 [15] = test: as above

| Structure (SMILES) | relative viability EC50 (HepG2 [1]) [µM] | relative viability EC50 (Caco-2 [2]) [µM] | relative viability EC50 (U2OS [3]) [µM] | relative viability EC50 (Vero E6 [4]) [µM] | relative viability EC50 (Calu-3 [5]) [µM] | drug sensitivity score (HepG2 [6]) | drug sensitivity score (Caco-2 [7]) | drug sensitivity score (U2OS [8]) | drug sensitivity score (Vero E6 [9]) | drug sensitivity score (Calu-3 [10]) | cell viability (HepG2 [11]; 1 nM) [%] | cell viability (HepG2 [11]; 10 nM) [%] | cell viability (HepG2 [11]; 100 nM) [%] | cell viability (HepG2 [11]; 1000 nM) [%] | cell viability (HepG2 [11]; 10000 nM) [%] | cell viability (Caco-2 [12]; 1 nM) [%] | cell viability (Caco-2 [12]; 10 nM) [%] | cell viability (Caco-2 [12]; 100 nM) [%] | cell viability (Caco-2 [12]; 1000 nM) [%] | cell viability (Caco-2 [12]; 10000 nM) [%] | cell viability (U2OS [13]; 1 nM) [%] | cell viability (U2OS [13]; 10 nM) [%] | cell viability (U2OS [13]; 100 nM) [%] | cell viability (U2OS [13]; 1000 nM) [%] | cell viability (U2OS [13]; 10000 nM) [%] | cell viability (Vero E6 [14]; 1 nM) [%] | cell viability (Vero E6 [14]; 10 nM) [%] | cell viability (Vero E6 [14]; 100 nM) [%] | cell viability (Vero E6 [14]; 1000 nM) [%] | cell viability (Vero E6 [14]; 10000 nM) [%] | cell viability (Calu-3 [15]; 1 nM) [%] | cell viability (Calu-3 [15]; 10 nM) [%] | cell viability (Calu-3 [15]; 100 nM) [%] | cell viability (Calu-3 [15]; 1000 nM) [%] | cell viability (Calu-3 [15]; 10000 nM) [%] |
| --- | --- | --- | --- | --- | --- | --- | --- | --- | --- | --- | --- | --- | --- | --- | --- | --- | --- | --- | --- | --- | --- | --- | --- | --- | --- | --- | --- | --- | --- | --- | --- | --- | --- | --- | --- |
| CC(C)[C@H](CO)Nc1nc(Nc2ccc(C(=O)O)c(Cl)c2)c2ncn(C(C)C)c2n1 [purvalanol-B] | > 10 | > 10 | > 10 | > 10 | > 10 | 0 | 0 | 0 | 0 | 0 | 93.5 | 99.2 | 99.1 | 98.4 | 98.9 | 89.4 | 91.9 | 103 | 96.8 | 98.3 | 97.1 | 96.1 | 101 | 103 | 107 | 94 | 96.4 | 95.9 | 94.9 | 103 | 111 | 101 | 106 | 114 | 95.5 |
| c1ccc2nc(C3=NCCN3)ccc2c1 [BU-224] | > 10 | > 10 | > 10 | > 10 | > 10 | 0.1 | 0.3 | 0 | 0 | 0 | 104 | 94.3 | 94.2 | 99.8 | 87.2 | 97.7 | 96.9 | 101 | 88.7 | 90.2 | 99.8 | 98.8 | 99.2 | 95.6 | 98.8 | 98.7 | 99.5 | 97.3 | 102 | 99 | 98.5 | 106 | 106 | 89.3 | 119 |
| COc1ccc(-c2ccc(=N)n(CCCC(=O)O)n2)cc1 [gabazine] | > 10 | > 10 | > 10 | > 10 | > 10 | 0 | 0 | 0 | 0 | 0 | 91.5 | 97 | 96.8 | 95.4 | 100 | 111 | 106 | 99.9 | 105 | 103 | 102 | 98.5 | 100 | 97.1 | 103 | 99.5 | 100 | 98.9 | 95.9 | 96 | 94.8 | 104 | 95.1 | 98 | 93.5 |
